Data reported in patent publication US10323078B2, “Isolated peptides and fragments thereof from fibrinogen for use as drugs, particularly in skin inflammatory diseases” (Universite Paris Descartes, priority 2015, dated 2019).

Experiments:
[1] = system: P. acnes surface proteins; test: Binding of biotinylated ECM ligands to immobilized P. acnes surface proteins; set-up: species or system Propionibacterium acnes
Method: FIG. 2: Binding of P. acnes surface protein to purified human fibrinogen. (A) P. acnes surface proteins (0.8 to 50 μg/ml) were immobilized onto a 96-well polystyrene plate and probed with biotinylated fibrinogen (0.1 μg/ml) for 2 h at room temperature. (B) P. acnes surface proteins (25 μg/ml) were immobilized onto a 96-well polystyrene plate and probed with various concentrations of biotinylated fibrinogen ranging from 0.1 to 16 μg/ml for 2 h at room temperature. Bound biotinylated fibrinogen were detected with HRP-streptavidine as described in Materials and Methods.
To characterize the interaction between P. acnes and ligands, we used biotinylated molecules in quantitative and qualitative assays. In a first set of assays, ECM ligands (fibrinogen, collagens I, IV, VI and VIII) were used as labelled proteins with biotin. In a second set of assays, P. acnes surface proteins (total extract and purified Pfg) were biotinylated. For quantitative analysis, unlabeled protein were diluted into 50 mM carbonate-bicarbonate, pH 9.6 buffer to yield a protein concentration ranging from 0.01 to 50 μg/ml, and then immobilized to 96-well polystyrene plates at 4° C. overnight. […] After washing, bound peroxidase was detected using the chromogenic peroxidase substrate ABTS. […] Binding activity was detected by incubating the membranes with 20 ml of PBT containing biotinylated proteins (0.1 μg/ml) for 2 h at room temperature followed by three washes with PBT. Bound biotinylated proteins were detected by incubating the membrane with peroxidase conjugated to streptavidin (0.5 μg/ml in PBT) for 1 h at room temperature. After washing, bound peroxidase activity was detected using 3,3′-diaminobenzidine in the presence of CoCl2 and H2O2 (Harlow and Lane, 1988).
In order to identify P. acnes surface protein recognized by ECM ligands, we used the most commons ECM proteins recognize by skin related bacteria like collagens and fibrinogen. […] To identify surface proteins, P. acnes total heat protein extracts were electrophoretically separated and detected by silver staining (FIG. 1B). […]

[2] = system: P. acnes 6919 strain; test: Adhesion assay, biotinylated P. acnes binding to HaCaT keratinocytes; type: cell-based, Propionibacterium acnes; conditions: P. acnes 6919 pre-treated with whole fibrinogen 0.01 to 0.5 mM, 1 h at 37° C.
Method: FIG. 12: Dose-dependent inhibition of P. acnes binding to keratinocytes. Biotinylated P. acnes 6919 strain at concentrations adjusted to 0.1 of absorbance at 600 nm was pre-treated with whole human (dark gray bar) and bovine (light gray bar) fibrinogen at the concentrations ranging from 0.01 to 0.5 mM and incubated 1 h at 37° C. with the human HaCaT keratinocyte cell line. After removal of unbound bacteria, adhesion activity was detected at 410 nm. Data are means±S.D. of three separate experiments. Statistical significance is indicated by * (P<0.05), ** (P<0.01), *** (P<0.001), and **** (P<0.0001), respectively.
The bacterial suspension was adjusted at 600 nm to the desired concentration, pretreated with peptides Fg1 and Fg2 at the final concentration ranging from 0.87 to 7 μM for 1 h at 37° C. and deposited on the previously saturated cells with a solution of PBS SVF 2% for 2 h. After incubation for 1 h at 37° C., unbound bacteria are removed by 3 washes with PBS and fixed bacteria are detected by a streptavidin-peroxidase solution of 0.5 μg/ml for 30 min.
Whole P. acnes bacteria are labelled by biotinylation, pre-treated or not with the peptides and contacted with the various cell lines. After removal of the unfixed bacteria, the adhesion activity was measured spectrophotometrically by using the streptavidin-peroxidase conjugate and a chromogenic substrate. […]

## human fibrinogen: purified commercial human fibrinogen (Sigma), glycoprotein hexamer of Aα, Bß and γ chains
[1]; 25 μg/ml of protein immobilized per well, various quantity of biotinylated Fg and Collagen I
  Binding activity of biotinylated ligand to immobilized P. acnes total surface protein: strong binding activity
[1]; several concentrations of protein extract immobilized, biotinylated fibrinogen 0.1 μg/ml
  P. acnes protein extract concentration at which the binding activity for fibrinogen reaches a plateau: about 6.25 μg/ml
[2]
  Inhibition of adhesion of P. acnes to keratinocytes: able to inhibit the adhesion
